Converted amounts (≈) assume the structure as drawn. Where two headings read alike, the source gives them in different places.
Legend:
L929 = experiment: cells; conditions: Mus musculus
RPMI-1641 [1] = experiment: cells
Description: (§4) These cell cultures include low passage HFH (HFH-LP), a pigmented line derived from the B-16 mouse melanoma, and NP, an amelanotic clone of HFH-LP. High passage HFH (HFH-HP) was derived from HFH-LP after 30 passages in vitro. […] These cell cultures further include Cloudman S91 mouse melanoma, RPMI 1846 (a Syrian hamster melanoma), baby hamster kidney (BHK) and Chinese hamster ovary (CHO). These cells were maintained as monolayers in Corning plastic flasks in Minimum Essential Medium (Eagle) with Earle's salts supplemented with 10% fetal bovine serum, 100 units of penicillin, 100 mg of streptomycin and 5 mg of amphotericin B per ml in 5% CO2 humidified air at 37° C.
(§5) Single cell suspensions were prepared as described above. Twenty-four hours after seeding, the cells were exposed to either (a) culture medium alone, or (b) culture medium containing 0.5 mM theophylline.
(§6) The values given are the mean from 6 replicates.

HFH-HP [2] = tested on: HFH-HP
Description: as §4, §5, §6

NP [3] = experiment: cells; conditions: Mus musculus, 1.5 h, read-out: Effect on Growth Rate (inhibition), NP
Description: (§7) These cell cultures include low passage HFH (HFH-LP), a pigmented line derived from the B-16 mouse melanoma, and NP, an amelanotic clone of HFH-LP. […] These cells were maintained as monolayers in Corning plastic flasks in Minimum Essential Medium (Eagle) with Earle's salts supplemented with 10% fetal bovine serum, 100 units of penicillin, 100 mg of streptomycin and 5 mg of amphotericin B per ml in 5% CO2 humidified air at 37° C.
(§8) Prior to dose-response studies, single cell suspensions were prepared in medium following trypsinization and inoculated into Falcon Multiwell plates (2 cm^2 wells) at 3.5×10^4 cells per 0.5 ml of medium. Cultures were maintained for 24 hours before exposure.
(§9) This stock solution was used to prepare test concentrations of the drug in culture medium. […] Cells were exposed to each of these concentrations by adding 0.5 ml of each of the solutions to triplicate test wells and incubating the cells under exposure at 37° C. for 1 hour. […] Cells were harvested after 48 hours and counted with a hemacytometer.

HFH-LP [4] = experiment: cells; conditions: Mus musculus
Description: as §4, §5, §6

melanin-pigmented cells = experiment: In vitro selective inhibition of melanin-pigmented cells, effective dosage/time regimens; assay type: cell-based
SH = experiment: cells; conditions: read-out: Percent Cell Detachment
Description: (§1) HFH and SH heavily pigmented cells, S91 lightly pigmented cells, and BHK nonpigmented cells were exposed to 13.8 mM morpholine for time periods ranging from 1 hour to 56 hours. The procedure was otherwise the same as described in Example 1 above. Cell death is indicated by cell detachment.

HFH = experiment: cells; conditions: Homo sapiens, read-out: Percent Cell Detachment
Description: as §1

BHK [5] = experiment: cells; conditions: Mesocricetus auratus, read-out: Percent Cell Detachment
Description: as §1

S91 = experiment: cells; conditions: Mus musculus, read-out: Percent Cell Detachment
Description: as §1

NP [6] = experiment: cells; conditions: Mus musculus
Description: as §4, §5, §6

in vitro = conditions: mouse, l929 cells
Description: (§10) These cells were maintained as monolayers in Corning plastic flasks in Minimum Essential Medium (Eagle) with Earle's salts supplemented with 10% fetal bovine serum, 100 units of penicillin, 100 mg of streptomycin and 5 mg of amphotericin B per ml in 5% CO2 humidified air at 37° C.
as §8, §9

L929 fibroblast = experiment: Effects of Various Cyclic Amines on Growth of Pigmented Melanoma Cells (Table III), L929; assay type: cell-based, mouse; conditions: Mus musculus, read-out: Percent Inhibition, L929 fibroblast
Description: (§2) Pigmented S91 melanoma and unpigmented L929 fibroblast cells were treated with various cyclic amines at a concentration of 13.8 mM as described in Example 1 above.

S91 melanoma = experiment: Effects of Various Cyclic Amines on Growth of Pigmented Melanoma Cells (Table III), S91; assay type: cell-based, mouse; conditions: Mus musculus, read-out: Percent Inhibition, S91 melanoma
Description: as §2

HFH-LP [7] = experiment: Effect of Cyclic Amines on Survival of Pigmented Melanoma (Table II), HFH-LP; conditions: Mus musculus, 24 h, read-out: percentage dead, HFH-LP
Description: as §10, §8, §9

HFH-LP [8] = experiment: Effect of Cyclic Amines on Growth Rate of Pigmented Melanoma (Table I), HFH-LP; assay type: cell-based, mouse; conditions: for inhibition at 13800 µM: Mus musculus, read-out: Effect on Growth Rate (inhibition), HFH-LP
Description: as §7, §8, §9

RPMI-1641 [9] = tested on: RPMI-1641
Description: as §4, §5, §6

[10] = tested on: unpigmented cell lines NP, BHK and CHO
Description: (§3) The Figure illustrates the effect of morpholine on the growth rate of HFH-LP (*), NP (0), BHK (+) and CHO (#) 48 hours after treatment. Values represent the mean ± S.E. for 3 to 6 determinations.

[11] = tested on: NP (amelanotic clone of HFH-LP); experiment: cells; conditions: Mus musculus, 48 h, read-out: ID50 (growth)
Description: as §3

[12] = tested on: baby hamster kidney (BHK); experiment: cells; conditions: Mesocricetus auratus, 48 h, read-out: ID50 (growth)
Description: as §3

[13] = tested on: HFH-LP (pigmented line derived from the B-16 mouse melanoma); experiment: cells
Description: as §3

[14] = tested on: Chinese hamster ovary (CHO); experiment: cells; conditions: Cricetulus griseus, 48 h, read-out: ID50 (growth)
Description: as §3

BHK [15] = experiment: cells; conditions: Mesocricetus auratus
Description: as §4, §5, §6

[16] = tested on: S91 (Cloudman S91 mouse melanoma); experiment: Effect of Cyclic Amines on Survival of Pigmented Melanoma (Table II), S91; conditions: 24 h, read-out: percentage dead, S91
Description: as §10, §8, §9

[17] = Effect of Cyclic Amines on Survival of Pigmented Melanoma (Table II), L929; conditions: mouse, l929 cells
Description: as §10, §8, §9

HFH-HP [18] = experiment: cells; conditions: Mus musculus, read-out: Growth inhibition, Theo. Alone vs. control
Description: as §4, §5, §6

RPMI 1946 cells = experiment: Pigmentation and growth of cells exposed to theophylline, RPMI 1946; assay type: cell-based, Syrian hamster; conditions: theophylline exposure
Description: as §5

HFH-LP and HFH-HP = experiment: Pigmentation and growth of cells exposed to theophylline, HFH-LP and HFH-HP; assay type: cell-based, mouse; conditions: theophylline exposure
Description: as §5

[19] = tested on: Unpigmented NP, CHO and mouse fibroblast L929 cells; experiment: Enhancement of toxicity by theophylline pretreatment, unpigmented cells; assay type: cell-based, mouse; Chinese hamster
Description: Twenty-four hours after seeding, the cells were exposed to either (a) culture medium alone, or (b) culture medium containing 0.5 mM theophylline.

[20] = 48 h, read-out: Growth inhibition, Morph. Alone vs. control
[21] = read-out: Growth inhibition, Theo. Alone vs. control

In the case of C1COCCN1 [morpholine], the inhibition at 1200 µg/mL (L929; L929, 48 h, read-out: Growth inhibition, Morph. Alone vs. control) is reported as -68%, the inhibition at 1200 µg/mL (RPMI-1641 [1]; Mesocricetus auratus, 48 h, read-out: Growth inhibition, Morph. Alone vs. control) is reported as -6% and the “greater toxicity of morpholine with theophylline pretreatment” value (HFH-HP [2]; growth inhibition increasing from 25% to 54%) is reported as “twofold”. For the same compound, the “growth inhibition with theophylline pretreatment” value (HFH-HP [2]; morpholine with theophylline pretreatment) was 54%, the inhibition at 13800 µM (NP [3]) was 0% and the inhibition at 1200 µg/mL (HFH-LP [4]; [20]) was 64%. For the same compound, the “in vitro effectiveness of dosage/time regimen” value (melanin-pigmented cells; 2.3 mM for 6 days) was “effective in vitro for inhibiting the growth of melanin-pigmented cells with little or no effect upon unpigmented cells”, the “in vitro effectiveness of dosage/time regimen” value (melanin-pigmented cells; 13.8 mM for 1 hour) was “effective in vitro for inhibiting the growth of melanin-pigmented cells with little or no effect upon unpigmented cells” and the “selective toxicity to melanoma cells in vitro” value (melanin-pigmented cells; 750 ppm (9mM) or 500 ppm (5mM)) was “selectively toxic to melanoma cells in vitro”. It also gave a cytotoxicity at 13800 µM (SH; 1 h) of 0%, a cytotoxicity at 13800 µM (SH; 6 h) of 0% and a cytotoxicity at 13800 µM (SH; 12 h) of 5%. The cytotoxicity at 13800 µM (SH; 18 h) was 80%, the cytotoxicity at 13800 µM (SH; 24 h) was 80% and the cytotoxicity at 13800 µM (SH; 56 h) was 100%. For the same compound, the cytotoxicity at 13800 µM (HFH; 1 h) was 0%, the cytotoxicity at 13800 µM (HFH; 6 h) was 40% and the cytotoxicity at 13800 µM (HFH; 12 h) was 100%. It also gave a cytotoxicity at 13800 µM (HFH; 18 h) of 100%, a cytotoxicity at 13800 µM (HFH; 24 h) of 100% and a cytotoxicity at 13800 µM (HFH; 56 h) of 100%. For the same compound, the cytotoxicity at 13800 µM (BHK [5]; 1 h) was 0%, the cytotoxicity at 13800 µM (BHK [5]; 6 h) was 0% and the cytotoxicity at 13800 µM (BHK [5]; 12 h) was 0%. For the same compound, the cytotoxicity at 13800 µM (BHK [5]; 18 h) was 0%, the cytotoxicity at 13800 µM (BHK [5]; 24 h) was 20% and the cytotoxicity at 13800 µM (BHK [5]; 56 h) was 100%. It also gave a cytotoxicity at 13800 µM (S91; S91, 1 h) of 0%, a cytotoxicity at 13800 µM (S91; S91, 6 h) of 50% and a cytotoxicity at 13800 µM (S91; S91, 12 h) of 100%. For the same compound, the cytotoxicity at 13800 µM (S91; S91, 18 h) was 100%, the cytotoxicity at 13800 µM (S91; S91, 24 h) was 100% and the cytotoxicity at 13800 µM (S91; S91, 56 h) was 100%. For the same compound, the inhibition at 1200 µg/mL (NP [6]; [20]) was -9%, the cytotoxicity at 24 h, 13800 µM (in vitro) was -101 ± 15% and the inhibition at 13800 µM (L929 fibroblast; L929, 1 Hour Exposure to 13.8 mM) was 0%. It also gave an inhibition at 13800 µM (S91 melanoma; S91, 1 Hour Exposure to 13.8 mM) of 60%, a cytotoxicity at 13800 µM (HFH-LP [7]) of 30 ± 7% and an inhibition at 13800 µM (HFH-LP [8]; 13.8 mM for 1.5 hr, mean ± S.E., 6 replicates) of 97 ± 19%. For the same compound, the “growth rate with morpholine exposure alone” value (RPMI-1641 [9]; RPMI 1641, morpholine alone) was “not inhibited”, the “difference between unpigmented cell lines” value ([10]; any of the dosages tested) was “did not differ significantly from one another” and the “inhibition of nonpigmented cell growth” value ([10]; higher dosages, 48 hours after treatment) was 20%. The “effect on nonpigmented cell growth” value ([10]; low dosages, 48 hours after treatment) was “not affected”, the IC50 [11] was greater than 2400 µg/mL and the IC50 [12] was greater than 2400 µg/mL. For the same compound, the IC50 ([13]; Mus musculus, 48 h, read-out: ID50 (growth)) was 1200 µg/mL (≈ 13.8 mM), the “inhibition of pigmented HFH cell line compared with unpigmented cell lines” value ([13]; at 1200 and 2400 ug/ml) was “inhibited significantly more (P<0.05)” and the “inhibition of pigmented cells” value ([13]; up to, 300-2400 ug/ml, 48 hours after treatment) was “up to 90%”. For the same compound, the IC50 [14] was greater than 2400 µg/mL, the inhibition at 1200 µg/mL (BHK [15]; [20]) was 0% and the cytotoxicity at 13800 µM [16] was 55 ± 6%.
For C1CCNCC1 [piperidine], the inhibition at 13800 µM (NP [3]) was 0%, the “in vitro effectiveness of dosage/time regimen” value (melanin-pigmented cells; 13.8 mM for 1 hour) was “effective in vitro for inhibiting the growth of melanin-pigmented cells with little or no effect upon unpigmented cells” and the inhibition at 13800 µM (L929 fibroblast; L929, 1 h) was 0%. For the same compound, the inhibition at 13800 µM (S91 melanoma; S91, 1 h) was 98%, the cytotoxicity at 13800 µM (HFH-LP [7]) was 33 ± 2% and the inhibition at 13800 µM (HFH-LP [8]; 1.5 h) was 42 ± 4%. For the same compound, the “inhibition of pigmented cell line HFH-LP (in words)” value (HFH-LP [8]; not as effective as morpholine at the dosage tested) was “selectively inhibitory to the pigmented cell line HFH-LP, although not as effective as morpholine”, the cytotoxicity at 24 h, 13800 µM [17] was -115 ± 14% and the cytotoxicity at 13800 µM [16] was 44 ± 3%.
For Cn1c(=O)c2[nH]cnc2n(C)c1=O [theophylline, reference compound], the inhibition at 500 µM (L929; L929, read-out: Growth inhibition, Theo. Alone vs. control) was -87%, the inhibition at 500 µM (RPMI-1641 [1]; [21]) was 35% and the inhibition at 500 µM (HFH-HP [18]) was 40%. For the same compound, the inhibition at 500 µM (HFH-LP [4]; [21]) was 35%, the inhibition at 500 µM (NP [6]; [21]) was 11% and the growth rate (RPMI 1946 cells) was “similarly affected”. For the same compound, the pigmentation (RPMI 1946 cells) was “no visible change in pigmentation”, the “growth rate of the cells” value (HFH-LP and HFH-HP) was “decreased” and the “pigmentation of the treated cells” value (HFH-LP and HFH-HP) was “visible increase in pigmentation”. For the same compound, the sensitization to morpholine (RPMI-1641 [9]; lightly pigmented RPMI 1641) was “sensitized the lightly pigmented RPMI 1641 cell line to morpholine”, the “effect of theophylline pretreatment on unpigmented cells” value [19] was “remained unaffected” and the inhibition at 500 µM (BHK [15]; [21]) was 20%.

Source: patent US4859668A, “Method of inhibiting the growth of melanin-pigmented cells” (North Carolina State University, priority 1988, dated 1989)
